Test results taken from patent US7144922B2, “Method and compound for the prophylaxis or treatment of an immunodeficiency condition, such as AIDS” (priority 2002, dated 2006).
Read-outs that look alike come from different tables or passages of the source.

What was measured:
[1] = test system: peripheral blood mononuclear cells (PBMC); assay: Toxicity testing in PBMC (tetrazolium MTS reduction); format: cell-based
Description: (§1) This assay was used to test the effectiveness of anti-HIV drug monotherapy in peripheral blood mononuclear cells (PBMC) infected with clinical isolates of HIV-1. Drug efficacy was determined by the production of supernatant HIV-1 p24. Drug-induced cytotoxicity was determined by the metabolic reduction of tetrazolium salts (MTS; Promega).
(§2) The antiviral drug or agent of the invention, H2K-1001 (90i), was solubilized. PBMCs, stimulated with PHA (phytohemagglutinin) for three days were employed throughout. Virus stocks (U.S. Clinical isolates) grown in PBMCs only, that past the necessary quality controls (i.e., replicate to high titer in PBMCs and meet the requirements as to genotype and phenotype) were rapidly thawed and maintained on ice until required for infection.
(§3) Half-log serial dilutions of test drugs and controls were prepared in tissue culture media (RPMI 1640 without phenol red, supplemented with 10% heat inactivated fetal bovine serum, 1% L-Glutamine, 1% Pen/Strep and 50 μg/ml gentamicin). Virus and cell controls were included on each test plate. Virus was added after cells and drugs were mixed. Cell, drug and virus containing cultures were incubated for seven (7) days with an interim feeding at day three or four.
(§4) Supernatants were sampled at seven days for p24 determination by antigen capture ELISA. Cytotoxicity was measured by the metabolic reduction of the tetrazolium salt according to the manufacturer's (Promega) recommendations.
(§5) The drug analysis reports from these studies are provided below in Tables 7–10. Efficacy (EC50) and viability (IC50) determinations were made using Cho and Cho Median Effect Equation, as noted above. Efficacy is expressed as the 50% effective concentration (EC50) and drug induced toxicity as the 50% inhibitory concentration (IC50).

[2] = test system: HIV-1 (P2); assay: Antiviral drug assay in PBMC infected with clinical isolate HIV-1 P2 (supernatant p24 ELISA); format: cell-based; conditions: for Efficacy % p24 Reduction: HIV-1 P2, day 7
Description: as §1, §2, §3, §4, §5

[3] = test system: HIV-1 (RF); assay: Antiviral drug assay in CEM-SS cells infected with HIV-1 RF (efficacy, tetrazolium reduction); format: cell-based; conditions: for Efficacy % CC (cell control): CEM-SS, HIV-1 (RF), day 6; for EC50: read-out: 50% effective concentration (EC50)
Description: Antiviral Drug Assay in CEM-SS Cells
(§6) This assay was used to test the effectiveness of anti-HIV drug monotherapy in the established T-cell line CEM-SS infected with HIV-1RF, HIV-1IIIb, HIV-2ROD, or other cytolytic variants of HIV. The antiviral agent and control (known antiviral drug—AZT) efficacy and cytotoxicity were determined by the metabolic reduction of the tetrazolium salt MTS (available from Promega).
(§7) The drugs were solubilized in DMSO (dimethyl sulfoxide). Three to ten vials of the antiviral agent and AZT were prepared and maintained at −70° C. CEM-SS cells were in logarithmic growth phase at the time of experimentation. Virus (HIV-1RF) stocks that past the necessary quality controls (killing effect on the type of cells used, limited variability, etc) were thawed and maintained on ice until required for addition.
(§8) Half-log serial dilutions of the antiviral agent or compound of the invention, H2K1001 (90i), were made in tissue culture media (RPMI 1640 without phenol red, supplemented with 10% heat inactivated fetal bovine serum, 1% L-Glutamine, 1% Pen/Strep and 50 ug/ml gentimycin). Virus, cell, drug and diluent (ethanol) controls were included for these tests. Virus was added after cells and drugs were mixed. Cell, drug, and virus containing cultures were incubated for six (6) days without additional feeding at which time the cultures were evaluated macrosopically and microscopically for cell toxicity, and the tetrazolium salt MTS was added for quantitation by the colorimetric determination of formazan production (optical density).
(§9) Drug efficacy and cytotoxicity effects were determined six days after infection by the metabolic reduction of the tetrazolium salt XTT to its' formazan by surviving cells and was quantitated by determination of optical density at 450 nm with background subtraction at 650 nm (Tables 1–4).
(§10) The drug plate analysis reports from this assay are provided below in Tables 1–4. Calculated endpoints (EC50, etc.) were determined using Cho and Cho Median Effect Equation (Daids Virology Manual for HIV Laboratories, Compiled by The Division of Aids, National Institute of Allergy and Infectious Diseases, National Institutes of Health and Collaborating Investigators, Version January 1997).

[4] = test system: susceptible isolates; assay: AZT in studies of susceptible isolates in PBMCs; format: cell-based, HIV-1; conditions: typical value
Description: Testing in PBMCs was directed against a primary clinical isolate of HIV-1 P2, which is resistant to a variety of non-nucleoside inhibitors or HIV-1 reverse transcriptase and, in our hands, AZT. Testing AZT (control) against this virus, as expected, produced a relatively high EC50 of 3 uM. Typically AZT produces EC50s of less than 0.01 uM in studies of susceptible isolates in PBMCs.

[5] = test system: CEM-SS T-lymphoblastoid cells; assay: Toxicity testing in CEM-SS T-lymphoblastoid cells (tetrazolium reduction); format: cell-based; conditions: for Toxicity % CC (cell control): day 6; for IC50: read-out: 50% inhibitory concentration, IC50 (drug induced toxicity)
Description: as §6, §7, §8, §9, §10

Structure (SMILES): Cc1cn([C@H]2C[C@H](N=[N+]=[N-])[C@@H](CO)O2)c(=O)[nH]c1=O [AZT, reference compound]
- Toxicity % CC (cell control) ([1]; 0.001 uM): 100%
- Toxicity % CC (cell control) ([1]; 0.003 uM): 111%
- Toxicity % CC (cell control) ([1]; 0.01 uM): 100%
- Toxicity % CC (cell control) ([1]; 0.03 uM): 99%
- Toxicity % CC (cell control) ([1]; 0.10 uM): 101%
- Toxicity % CC (cell control) ([1]; 0.32 uM): 99%
- Toxicity % CC (cell control) ([1]; 1 uM): 105%
- Toxicity % CC (cell control) ([1]; 3 uM): 105%
- Toxicity % CC (cell control) ([1]; 10 uM): 104%
- Efficacy % p24 Reduction ([2]; 0.001 uM): 12%
- Efficacy % p24 Reduction ([2]; 0.003 uM): 21%
- Efficacy % p24 Reduction ([2]; 0.01 uM): 14%
- Efficacy % p24 Reduction ([2]; 0.03 uM): 10%
- Efficacy % p24 Reduction ([2]; 0.10 uM): 20%
- Efficacy % p24 Reduction ([2]; 0.32 uM): 26%
- Efficacy % p24 Reduction ([2]; 1 uM): 22%
- Efficacy % p24 Reduction ([2]; 3 uM): 51%
- Efficacy % p24 Reduction ([2]; 10 uM): 77%
- EC50 ([2]; clinical isolate HIV-1 P2, read-out: EC50): 3 µM
- Efficacy % CC (cell control) ([3]; 0.001 uM): 42%
- Efficacy % CC (cell control) ([3]; 0.003 uM): 44%
- Efficacy % CC (cell control) ([3]; 0.01 uM): 90%
- Efficacy % CC (cell control) ([3]; 0.03 uM): 83%
- Efficacy % CC (cell control) ([3]; 0.1 uM): 85%
- Efficacy % CC (cell control) ([3]; 0.3 uM): 82%
- Efficacy % CC (cell control) ([3]; 1 uM): 90%
- Efficacy % CC (cell control) ([3]; 3 uM): 82%
- Efficacy % CC (cell control) ([3]; 10 uM): 87%
- EC50 ([3]; CEM-SS cells, HIV-1 RF): ~0.0035 µM
- EC50 [4]: < 0.01 µM
- Toxicity % CC (cell control) ([5]; 0.001 uM, CEM-SS): 93%
- Toxicity % CC (cell control) ([5]; 0.003 uM, CEM-SS): 100%
- Toxicity % CC (cell control) ([5]; 0.01 uM, CEM-SS): 109%
- Toxicity % CC (cell control) ([5]; 0.03 uM, CEM-SS): 104%
- Toxicity % CC (cell control) ([5]; 0.1 uM, CEM-SS): 102%
- Toxicity % CC (cell control) ([5]; 0.3 uM, CEM-SS): 102%
- Toxicity % CC (cell control) ([5]; 1 uM, CEM-SS): 96%
- Toxicity % CC (cell control) ([5]; 3 uM, CEM-SS): 95%
- Toxicity % CC (cell control) ([5]; 10 uM, CEM-SS): 95%
- IC50 ([5]; CEM-SS cells): > 10 µM

Structure (SMILES): O=C(OCCOCCOC(=O)c1ccccc1)c1ccccc1 [H2K1001 (90i), diethylene glycol dibenzoate]
- Toxicity % CC (cell control) ([1]; 0.01 ug/ml): 94%
- Toxicity % CC (cell control) ([1]; 0.03 ug/ml): 103%
- Toxicity % CC (cell control) ([1]; 0.10 ug/ml): 91%
- Toxicity % CC (cell control) ([1]; 0.33 ug/ml): 94%
- Toxicity % CC (cell control) ([1]; 1 ug/ml): 97%
- Toxicity % CC (cell control) ([1]; 3 ug/ml (3.2 in Table 11)): 94%
- Toxicity % CC (cell control) ([1]; 10 ug/ml): 100%
- Toxicity % CC (cell control) ([1]; 32 ug/ml): 104%
- Toxicity % CC (cell control) ([1]; 100 ug/ml): 111%
- IC50 ([1]; no unit printed, read-out: IC50 (drug induced toxicity)): > 100 µg/mL
- IC50 ([1]; read-out: 50% inhibitory concentration, IC50 (drug induced toxicity)): > 100 µg/mL
- Efficacy % p24 Reduction ([2]; 0.01 ug/ml): 23%
- Efficacy % p24 Reduction ([2]; 0.03 ug/ml): 25%
- Efficacy % p24 Reduction ([2]; 0.10 ug/ml): 36%
- Efficacy % p24 Reduction ([2]; 0.33 ug/ml): 36%
- Efficacy % p24 Reduction ([2]; 1 ug/ml): 53%
- Efficacy % p24 Reduction ([2]; 3 ug/ml (3.2 in Table 11)): 87%
- Efficacy % p24 Reduction ([2]; 10 ug/ml): 95%
- Efficacy % p24 Reduction ([2]; 32 ug/ml): 94%
- Efficacy % p24 Reduction ([2]; 100 ug/ml): 93%
- EC50 ([2]; Human immunodeficiency virus 1, PBMC, clinical isolate HIV-1 P2, read-out: 50% effective concentration (EC50)): 0.8 µg/mL
- 50% effective concentration (EC50) ([2]; clinical isolate HIV-1 P2, listed as 90i): approximately 0.8 ug/ml
- Efficacy % CC (cell control) ([3]; 0.01 ug/ml): 42%
- Efficacy % CC (cell control) ([3]; 0.03 ug/ml): 80%
- Efficacy % CC (cell control) ([3]; 0.1 ug/ml): 87%
- Efficacy % CC (cell control) ([3]; 0.3 ug/ml): 83%
- Efficacy % CC (cell control) ([3]; 1 ug/ml): 84%
- Efficacy % CC (cell control) ([3]; 3 ug/ml): 84%
- Efficacy % CC (cell control) ([3]; 10 ug/ml): 82%
- Efficacy % CC (cell control) ([3]; 33 ug/ml): 86%
- Efficacy % CC (cell control) ([3]; 100 ug/ml): 88%
- 50% effective concentration (EC50) ([3]; CEM-SS cells, HIV-1 RF, listed as 90i): approximately 0.020 ug/ml
- EC50 ([3]; Human immunodeficiency virus 1, CEM-SS, CEM-SS cells, HIV-1 RF): 0.02 µg/mL
- Toxicity % CC (cell control) ([5]; 0.01 ug/ml, CEM-SS): 100%
- Toxicity % CC (cell control) ([5]; 0.03 ug/ml, CEM-SS): 103%
- Toxicity % CC (cell control) ([5]; 0.1 ug/ml, CEM-SS): 104%
- Toxicity % CC (cell control) ([5]; 0.3 ug/ml, CEM-SS): 100%
- Toxicity % CC (cell control) ([5]; 1 ug/ml, CEM-SS): 100%
- Toxicity % CC (cell control) ([5]; 3 ug/ml, CEM-SS): 99%
- Toxicity % CC (cell control) ([5]; 10 ug/ml, CEM-SS): 93%
- Toxicity % CC (cell control) ([5]; 33 ug/ml, CEM-SS): 94%
- Toxicity % CC (cell control) ([5]; 100 ug/ml, CEM-SS): 106%
- 50% inhibitory concentration, IC50 (drug induced toxicity) ([5]; CEM-SS cells, listed as 90i): > 100 µg/mL
- IC50 ([5]; Homo sapiens, CEM-SS): > 100 µg/mL
